Measured values reported in the NIST ThermoML archive (doi:10.1021/je1003065).
± gives the expanded uncertainty stated by the source.

Test: mn = molality of the nth substance listed, in mol/kg
Conditions: Liquid, Vibrating tube method

## [Br-].[Li+] [lithium bromide] + CCO
373.16 K, 5125 kPa, m1 = 0.5972
  mass density: 762.2 ± 1.5 kg/m3
373.16 K, 9909 kPa, m1 = 1.462
  mass density: 822.87 ± 1.6 kg/m3
373.16 K, 29954 kPa, m1 = 0.2335
  mass density: 764.93 ± 1.6 kg/m3
373.16 K, 40172 kPa, m1 = 0.5972
  mass density: 798.56 ± 1.6 kg/m3
373.16 K, 49979 kPa, m1 = 0.5972
  mass density: 807.22 ± 1.7 kg/m3
373.16 K, 79993 kPa, m1 = 1.462
  mass density: 881.25 ± 1.8 kg/m3
373.16 K, 89924 kPa, m1 = 1.462
  mass density: 887.37 ± 1.9 kg/m3
373.16 K, 99892 kPa, m1 = 2.272
  mass density: 936.43 ± 1.9 kg/m3
373.17 K, 1353 kPa, m1 = 2.272
  mass density: 860.5 ± 1.7 kg/m3
373.17 K, 20097 kPa, m1 = 1.462
  mass density: 833.45 ± 1.7 kg/m3
373.17 K, 29993 kPa, m1 = 1.462
  mass density: 842.95 ± 1.7 kg/m3
373.17 K, 49993 kPa, m1 = 1.462
  mass density: 860.02 ± 1.8 kg/m3
373.17 K, 50023 kPa, m1 = 0.2335
  mass density: 783.79 ± 1.6 kg/m3
373.17 K, 59801 kPa, m1 = 0.5972
  mass density: 815.22 ± 1.7 kg/m3
373.17 K, 99791 kPa, m1 = 1.462
  mass density: 893.1 ± 1.9 kg/m3
373.18 K, 4985 kPa, m1 = 2.272
  mass density: 864.78 ± 1.7 kg/m3
373.18 K, 9782 kPa, m1 = 2.272
  mass density: 870.51 ± 1.8 kg/m3
373.19 K, 19637 kPa, m1 = 2.272
  mass density: 879.78 ± 1.8 kg/m3
373.19 K, 29927 kPa, m1 = 2.272
  mass density: 888.82 ± 1.8 kg/m3
373.19 K, 39864 kPa, m1 = 2.272
  mass density: 896.99 ± 1.8 kg/m3
373.19 K, 40176 kPa, m1 = 1.462
  mass density: 851.97 ± 1.7 kg/m3
398.11 K, 79836 kPa, m1 = 2.272
  mass density: 910.54 ± 1.9 kg/m3
398.12 K, 10085 kPa, m1 = 1.462
  mass density: 801.33 ± 1.6 kg/m3
398.12 K, 39724 kPa, m1 = 2.272
  mass density: 879.8 ± 1.8 kg/m3
398.12 K, 49958 kPa, m1 = 2.272
  mass density: 888.51 ± 1.8 kg/m3
398.12 K, 59977 kPa, m1 = 2.272
  mass density: 896.37 ± 1.8 kg/m3
398.12 K, 69928 kPa, m1 = 2.272
  mass density: 903.66 ± 1.9 kg/m3
398.13 K, 5252 kPa, m1 = 1.462
  mass density: 795.21 ± 1.6 kg/m3
398.13 K, 29993 kPa, m1 = 2.272
  mass density: 870.74 ± 1.8 kg/m3
398.13 K, 39727 kPa, m1 = 3.368
  mass density: 934.47 ± 1.9 kg/m3
398.14 K, 9704 kPa, m1 = 2.272
  mass density: 848.87 ± 1.7 kg/m3
398.14 K, 9986 kPa, m1 = 2.833
  mass density: 879.45 ± 1.8 kg/m3
398.14 K, 19987 kPa, m1 = 3.368
  mass density: 916.46 ± 1.8 kg/m3
398.14 K, 20117 kPa, m1 = 2.272
  mass density: 860.65 ± 1.7 kg/m3
398.14 K, 29928 kPa, m1 = 0.2335
  mass density: 744.1 ± 1.5 kg/m3
398.14 K, 29993 kPa, m1 = 3.368
  mass density: 926 ± 1.9 kg/m3
398.14 K, 39959 kPa, m1 = 1.462
  mass density: 834.18 ± 1.7 kg/m3
398.14 K, 40001 kPa, m1 = 0.5972
  mass density: 779.67 ± 1.6 kg/m3
398.14 K, 49956 kPa, m1 = 2.833
  mass density: 917.53 ± 1.9 kg/m3
398.14 K, 89925 kPa, m1 = 2.833
  mass density: 945.26 ± 1.9 kg/m3
398.14 K, 99863 kPa, m1 = 0.5972
  mass density: 827.19 ± 1.9 kg/m3
398.15 K, 1326 kPa, m1 = 2.833
  mass density: 868.98 ± 1.7 kg/m3
398.15 K, 1425 kPa, m1 = 0.9499
  mass density: 756.04 ± 1.5 kg/m3
398.15 K, 2012 kPa, m1 = 3.368
  mass density: 896.84 ± 1.8 kg/m3
398.15 K, 2214 kPa, m1 = 1.462
  mass density: 790.21 ± 1.6 kg/m3
398.15 K, 2451 kPa, m1 = 0.2335
  mass density: 705.58 ± 1.4 kg/m3
398.15 K, 2804 kPa, m1 = 0.5972
  mass density: 733.32 ± 1.5 kg/m3
398.15 K, 5002 kPa, m1 = 2.833
  mass density: 873.54 ± 1.8 kg/m3
398.15 K, 5024 kPa, m1 = 0.2335
  mass density: 709.8 ± 1.4 kg/m3
398.15 K, 5025 kPa, m1 = 0.9499
  mass density: 761.36 ± 1.5 kg/m3
398.15 K, 9911 kPa, m1 = 3.368
  mass density: 905.89 ± 1.8 kg/m3
398.15 K, 9986 kPa, m1 = 0.9499
  mass density: 768.11 ± 1.6 kg/m3
398.15 K, 10023 kPa, m1 = 0.2335
  mass density: 717.61 ± 1.5 kg/m3
398.15 K, 19859 kPa, m1 = 1.462
  mass density: 812.89 ± 1.6 kg/m3
398.15 K, 19923 kPa, m1 = 0.9499
  mass density: 780.63 ± 1.6 kg/m3
398.15 K, 19925 kPa, m1 = 2.833
  mass density: 890.37 ± 1.8 kg/m3
398.15 K, 29784 kPa, m1 = 0.9499
  mass density: 791.83 ± 1.6 kg/m3
398.15 K, 29946 kPa, m1 = 1.462
  mass density: 823.95 ± 1.7 kg/m3
398.15 K, 29996 kPa, m1 = 0.5972
  mass density: 769.06 ± 1.6 kg/m3
398.15 K, 39926 kPa, m1 = 0.9499
  mass density: 802.25 ± 1.6 kg/m3
398.15 K, 39941 kPa, m1 = 0.2335
  mass density: 754.26 ± 1.6 kg/m3
398.15 K, 40021 kPa, m1 = 2.833
  mass density: 909.38 ± 1.8 kg/m3
398.15 K, 49925 kPa, m1 = 1.462
  mass density: 843.34 ± 1.7 kg/m3
398.15 K, 49926 kPa, m1 = 3.368
  mass density: 942.62 ± 1.9 kg/m3
398.15 K, 49931 kPa, m1 = 0.2335
  mass density: 764.05 ± 1.6 kg/m3
398.15 K, 49993 kPa, m1 = 0.5972
  mass density: 789.19 ± 1.7 kg/m3
398.15 K, 50024 kPa, m1 = 0.9499
  mass density: 811.67 ± 1.7 kg/m3
398.15 K, 59926 kPa, m1 = 0.9499
  mass density: 820.12 ± 1.7 kg/m3
398.15 K, 59926 kPa, m1 = 2.833
  mass density: 925.07 ± 1.9 kg/m3
398.15 K, 69784 kPa, m1 = 0.9499
  mass density: 827.92 ± 1.8 kg/m3
398.15 K, 69953 kPa, m1 = 0.2335
  mass density: 781.36 ± 1.7 kg/m3
398.15 K, 69979 kPa, m1 = 0.5972
  mass density: 805.77 ± 1.7 kg/m3
398.15 K, 79787 kPa, m1 = 0.5972
  mass density: 813.07 ± 1.8 kg/m3
398.15 K, 79935 kPa, m1 = 0.9499
  mass density: 835.45 ± 1.8 kg/m3
398.15 K, 80002 kPa, m1 = 2.833
  mass density: 938.86 ± 1.9 kg/m3
398.15 K, 89921 kPa, m1 = 0.2335
  mass density: 795.82 ± 1.8 kg/m3
398.15 K, 89936 kPa, m1 = 0.9499
  mass density: 842.54 ± 1.8 kg/m3
398.15 K, 89963 kPa, m1 = 2.272
  mass density: 917.33 ± 1.9 kg/m3
398.15 K, 89994 kPa, m1 = 0.5972
  mass density: 820.32 ± 1.8 kg/m3
398.15 K, 99021 kPa, m1 = 0.9499
  mass density: 848.81 ± 1.9 kg/m3
398.15 K, 99624 kPa, m1 = 0.2335
  mass density: 802.67 ± 1.9 kg/m3
398.15 K, 99816 kPa, m1 = 1.462
  mass density: 879.34 ± 1.9 kg/m3
398.15 K, 99985 kPa, m1 = 2.833
  mass density: 951.65 ± 1.9 kg/m3
398.15 K, 100000 kPa, m1 = 3.368
  mass density: 976.03 ± 2 kg/m3
398.16 K, 5023 kPa, m1 = 3.368
  mass density: 900.37 ± 1.8 kg/m3
398.16 K, 19941 kPa, m1 = 0.5972
  mass density: 757.12 ± 1.5 kg/m3
398.16 K, 19974 kPa, m1 = 0.2335
  mass density: 731.71 ± 1.5 kg/m3
398.16 K, 29947 kPa, m1 = 2.833
  mass density: 900.32 ± 1.8 kg/m3
398.16 K, 60031 kPa, m1 = 1.462
  mass density: 851.51 ± 1.8 kg/m3
398.16 K, 60122 kPa, m1 = 3.368
  mass density: 950.15 ± 1.9 kg/m3
398.16 K, 69784 kPa, m1 = 2.833
  mass density: 932.03 ± 1.9 kg/m3
398.16 K, 69947 kPa, m1 = 1.462
  mass density: 859.16 ± 1.8 kg/m3
398.16 K, 69957 kPa, m1 = 3.368
  mass density: 956.94 ± 1.9 kg/m3
398.16 K, 79919 kPa, m1 = 3.368
  mass density: 963.47 ± 1.9 kg/m3
398.16 K, 80014 kPa, m1 = 0.2335
  mass density: 788.79 ± 1.8 kg/m3
398.16 K, 89928 kPa, m1 = 1.462
  mass density: 872.71 ± 1.8 kg/m3
398.16 K, 89993 kPa, m1 = 3.368
  mass density: 969.83 ± 2 kg/m3
398.17 K, 5071 kPa, m1 = 0.5972
  mass density: 736.75 ± 1.5 kg/m3
398.17 K, 9730 kPa, m1 = 0.5972
  mass density: 743.51 ± 1.5 kg/m3
398.17 K, 59907 kPa, m1 = 0.5972
  mass density: 797.77 ± 1.7 kg/m3
398.17 K, 59978 kPa, m1 = 0.2335
  mass density: 773.47 ± 1.7 kg/m3
398.18 K, 1833 kPa, m1 = 2.272
  mass density: 839.1 ± 1.7 kg/m3
398.18 K, 80059 kPa, m1 = 1.462
  mass density: 866.49 ± 1.8 kg/m3
398.19 K, 99619 kPa, m1 = 2.272
  mass density: 923.71 ± 1.9 kg/m3
398.22 K, 4702 kPa, m1 = 2.272
  mass density: 842.75 ± 1.7 kg/m3
